This note sets out measurements from patent publication US6506876B1, “LTA4 hydrolase inhibitor pharmaceutical compositions and methods of use” (G.D. Searle & Co., priority 1994, dated 2003).

The test system of assay [1] is LTB4 production in mouse blood (LTA4 hydrolase). The assay can be described thus: Ex vivo LTB4 production by calcium ionophore stimulated mouse blood after oral dosing. Format: in vivo. The protocol:
Ex Vivo LTB4 and Thromboxane Production by Calcium Ionophore Stimulated Mouse Blood for LTA4 Hydrolase Inhibitor Activity
Leukotriene A4 hydrolase inhibitor compounds of the present invention were diluted to a predetermined concentration in phosphate buffered saline containing 2% DMSO and 1% Tween 80. The compounds were administered by oral gavage to adult male outbred mice weighing approximately 20-30 gm at a dose of 10 mg/kg body weight. (Compounds given at a dose of 50 mg/kg body weight are designtated in following Table by the symbol, *.) Sixty (60) minutes after administration of an LTA4 inhibitor compound of the invention, blood was collected (into heparin-containing tubes) from the retroorbital sinus. […] The mixture was incubated for 10 minutes at 37° C. in a humidified incubator. The reaction was terminated by centrifugation (833 g, 10 minutes at 4° C.). Supernatants were analyzed for LTB4 and thromboxane by commercially available enzyme-linked immunoassays (Caymen Chemical Co., Ann Arbor, Mich.] in accordance with the manufacturer's instructions. The percent inhibition was determined by comparison to animals treated identically except that the solution admininstered by oral gavage was devoid of inhibitor compound.

Assay [2] concerns the target T1, recombinant human LTA4 hydrolase (rhLTA4H) (Homo sapiens, UniProt P09960).
T1 sequence (P09960 1-611): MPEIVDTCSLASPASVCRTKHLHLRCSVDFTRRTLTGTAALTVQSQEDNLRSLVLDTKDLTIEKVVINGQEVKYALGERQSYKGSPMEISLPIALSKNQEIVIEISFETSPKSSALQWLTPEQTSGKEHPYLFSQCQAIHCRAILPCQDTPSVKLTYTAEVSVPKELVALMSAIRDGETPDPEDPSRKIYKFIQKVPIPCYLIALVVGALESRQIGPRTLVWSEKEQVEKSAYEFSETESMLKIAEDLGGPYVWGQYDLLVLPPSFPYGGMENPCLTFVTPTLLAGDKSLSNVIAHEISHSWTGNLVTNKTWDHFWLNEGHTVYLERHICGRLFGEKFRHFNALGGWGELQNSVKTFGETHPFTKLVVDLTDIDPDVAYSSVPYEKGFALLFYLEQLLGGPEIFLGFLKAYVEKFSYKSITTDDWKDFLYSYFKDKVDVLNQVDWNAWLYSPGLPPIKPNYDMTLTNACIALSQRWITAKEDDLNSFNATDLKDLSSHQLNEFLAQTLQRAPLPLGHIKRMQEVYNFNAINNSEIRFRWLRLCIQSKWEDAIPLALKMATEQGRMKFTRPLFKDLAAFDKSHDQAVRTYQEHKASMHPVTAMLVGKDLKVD
The assay is described as follows: Recombinant human LTA4 hydrolase assay for LTA4 hydrolase inhibitor activity. The settings on record: for IC50: Recombinant Human LTA4 Hydrolase Assay IC50 LTA4H, recombinant hLTA4H; for inhibition at 3 µM: read-out: Recombinant Human LTA4 Hydrolase Assay, % at 3 μM; for inhibition at 100 µM: read-out: Recombinant Human LTA4 Hydrolase Assay, % at 100 μM.
Description: One or more predetermined amounts of a compound of the invention were incubated in assay buffer (0.1 M potassium phosphate, 5 mg/ml fatty acid free BSA, 10% DMSO, pH 7.4) for 10 minutes at room temperature with 250 ng of recombinant hLTA4H to allow binding, if any, between the enzyme and inhibitor. The stock enzyme solution was 1 mg/ml LTA4 hydrolase, 50 mM Tris, pH 8.0, 150 mM NaCl, 2.5 mM beta-mercaptoethanol, 50% glycerol. […] Each reaction was carried out at room temperature for 10 minutes. The reaction was stopped by diluting 25 μl of the reaction mixture with 500 μl of the assay buffer without DMSO. LTB4 was quantified in the diluted sample by a commercially available enzyme-linked immunoassay [Caymen Chemical Co., Ann Arbor, Mich.] using the method recommended in the manufacturer's instructions and compared to the amount of LTB4 produced in a negative control (i.e., essentially identical conditions except without addition of an inhibitor compound). The IC50 was routinely calculated from the data produced.

[3] abbreviates: mouse, oral gavage, 1 hour after administration of 10 mg/kg; read-out: Murine Ex Vivo LTB4 Inhibition % I LTB4.
Setting [4] is: Mus musculus, po, 1 h, read-out: Murine Ex Vivo LTB4 Inhibition % I LTB4.
[5] abbreviates: Mus musculus, po, 1 h; read-out: Murine Ex Vivo LTB4 Inhibition % I LTB4.

Values joined by “and” are separate entries in the source; they are usually repeats but may differ in a detail not shown here. Equal entries are not always repeated. Where two headings read alike, the source gives them in different places.

As a reminder, the IC50 is the concentration needed to halve the response being measured. In the case of `C[C@@H]1C[C@H](C(N)=O)CCN1CCOc1ccc(Cc2ccccc2)cc1` (relative stereo) [Example 297], the inhibition in vivo at 10 mg/kg in assay [1] (setting [3]) was 63%. The IC50 in assay [2] was 120 nM.

Regarding `c1ccc(Oc2ccc(OCCN3CCCC3)cc2)cc1` [Example 44], the inhibition in vivo at 10 mg/kg in assay [1] (setting [4]) was determined as 25%.

With `c1nc(Cc2ccc(OCCN3CCCC3)cc2)cs1` [Example 49, 4-[[4-[2-(1-pyrrolidinyl)ethoxy]phenyl]methyl]thiazole], the inhibition in vivo at 10 mg/kg in assay [1] (setting [4]) stood at 46%.

Take `FC(F)(c1ccccc1)c1ccc(OCCN2CCCC2)cc1` [Example 67, 1-[2-[4-[(difluoro)phenylmethyl]phenoxy]ethyl]pyrrolidine]: the “Murine Ex Vivo LTB4 Inhibition % I LTB4” value in assay [1] (mouse, oral gavage, 1 hour after administration of 10 mg/kg) is given as 0%.

With `c1ccc(Cc2ccc(OCCN3CCCC3)nc2)cc1` [Example 112], the inhibition in vivo at 50 mg/kg in assay [1] (setting [4]) amounted to 82%.

With `c1csc(Cc2ccc(OCCN3CCCC3)cc2)n1` [Example 121], the inhibition in vivo at 10 mg/kg in assay [1] (setting [4]) came out at 48%.

With `c1ncc(Cc2ccc(OCCN3CCCC3)cc2)s1` [Example 122], in assay [1] (setting [4]), the inhibition in vivo at 10 mg/kg came out at 57%.

As for `c1cncc(Cc2ccc(OCCN3CCCC3)cc2)c1` [Example 125], the inhibition in vivo at 10 mg/kg in assay [1] (setting [4]) amounted to 46%.

Regarding `c1cc(Cc2ccc(OCCN3CCCC3)cc2)cs1` [Example 134], the inhibition in vivo at 10 mg/kg in assay [1] (setting [4]) is 63%.

With `CC(C)(C)OC(=O)CCNCCCOc1ccc(Cc2ccccc2)cc1` [Example 268], the inhibition at 3 µM in assay [2] came to 53%.

With `CCOC(=O)C1CCCN(CCOc2ccc(Cc3ccccc3)cc2)C1` (stereo not shown) [Example 270], in assay [2], the IC50 was determined as 50000 nM.

As to `CCOC(=O)CCNCCCCCOc1ccc(Cc2ccccc2)cc1` [Example 274], the IC50 in assay [2] is 800 nM.

For `COC(=O)CC1CCN(CCOc2ccc(Cc3ccccc3)cc2)C1` (stereo not shown) [Example 275], the inhibition in vivo at 10 mg/kg in assay [1] (setting [3]) was 75%.

Turning to `COC(=O)C1CCN(CCOc2ccc(Cc3ccccc3)cc2)C1` (stereo not shown) [Example 276], in assay [1] (setting [3]), the inhibition in vivo at 10 mg/kg is 75%.

In the case of `CC1(CN2CCC(C(N)=O)CC2)Cc2cc(Cc3ccccc3)ccc2O1` (stereo not shown) [Example 286], in assay [2], the inhibition at 100 µM turned out to be 41%.

With `c1ccc(Cc2cnc3c(c2)CC(CN2CCCC2)O3)cc1` (stereo not shown) [Example 287], the half-inhibitory concentration (IC50) in assay [2] turned out to be 330 nM.

As for `c1ccc(Oc2ccc3c(c2)CC(CN2CCCC2)O3)cc1` (stereo not shown) [Example 289], the IC50 in assay [2] was found to be 43 nM.

With `c1ccc(Cc2ccc3c(c2)CCC(CN2CCCC2)O3)cc1` (stereo not shown) [Example 292], the IC50 in assay [2] was 7 nM.

Regarding `CCOC(=O)CC1CCN(CCCOc2ccc(Cc3ccccc3)cc2)CC1` [Example 302], the half-inhibitory concentration (IC50) in assay [2] is 3000 nM.

Consider `COC(=O)CC1CC2CC1CN2CCOc1ccc(Cc2ccccc2)cc1` (stereo not shown) [Example 304], for which, in assay [1] (setting [4]), the inhibition in vivo at 10 mg/kg was determined as 80%.

As to `COC(=O)CC1CC2CC1N(CCOc1ccc(Cc3ccccc3)cc1)C2` (stereo not shown) [Example 307], the IC50 in assay [2] is 440 nM.

In the case of `CCOC(=O)C1CCN(CCOc2ccc(Cc3cccnc3)cc2)CC1` [Example 311], in assay [2], the inhibition at 100 µM was determined as 44%.

In the case of `CCOC(=O)C1CCN(CCOc2ccc(Cc3ccc(F)cc3)cc2)CC1` [Example 312], the inhibition at 100 µM in assay [2] is 46%.

As for `CCOC(=O)C1CCN(CCOc2ccc(Cc3ccsc3)cc2)CC1` [Example 313], in assay [2], the IC50 was determined as 25000 nM.

In the case of `COc1ccc(Cc2ccc(OCCN3CCC(C(N)=O)CC3)cc2)cc1F` [Example 314], the IC50 in assay [2] was determined as 1500 nM.

`COC(=O)CNCCCOc1ccc(Cc2ccccc2)cc1` [Example 318]: the IC50 in assay [2] is 2500 nM and 4200 nM.

On to `O=C(CNCCOc1ccc(Cc2ccccc2)cc1)OCc1ccccc1` [Example 319], for which, in assay [2], the inhibition at 100 µM came out at 47%.

For the compound `COC(=O)CCN(C)CCCOc1ccc(Cc2ccc(F)cc2)cc1` [Example 332], the IC50 in assay [2] came out at 14000 nM.

Take `CN(CCCOc1ccc(Cc2ccc(F)cc2)cc1)CCC(=O)O` [Example 336]: the inhibition in vivo at 10 mg/kg in assay [1] (setting [5]) turned out to be 99%.

On to `c1ccc(Cc2ccc(OCCn3ccc4ncccc43)cc2)cc1` [Example 342], for which the half-inhibitory concentration (IC50) in assay [2] worked out at 970 nM.

For the compound `c1ccc(Oc2ccc(OCCCn3cnc4ccccc43)cc2)cc1` [Example 343], the inhibition at 3 µM in assay [2] worked out at 40%.

In the case of `c1ccc(Oc2ccc(OCCn3cnc4ccccc43)cc2)cc1` [Example 344], in assay [2], the IC50 came to 11100 nM.

With `c1ccc(COc2ccc(OCCn3cnc4ccccc43)cc2)cc1` [Example 345], the inhibition at 3 µM in assay [2] is 35%.

As to `c1ccc(Cc2ccc(OCCn3ccnc3)cc2)cc1` [Example 352], in assay [2], the IC50 was 120 nM.

As for `[O-][n+]1ccc2ncn(CCOc3ccc(Cc4ccccc4)cc3)c2c1` [Example 364], the IC50 in assay [2] was found to be 36 nM.

For the compound `O=C(O)C1CCN(CCOc2ccc(Cc3ccccc3)s2)CC1` [Example 371], in assay [2], the IC50 is 860 nM.

With `c1ccc(Cc2ccc(OCCN3CCCCC3)cc2)cc1` [Example 401], the inhibition in vivo at 10 mg/kg in assay [1] (setting [4]) was found to be 23%.

As to `CC1CCCC(C)N1CCOc1ccc(Cc2ccccc2)cc1` (stereo not shown) [Example 402], in assay [1] (setting [4]), the inhibition in vivo at 10 mg/kg was found to be 58%.

As to `CC(CN1CCCCC1)Oc1ccc(Cc2ccccc2)cc1` (stereo not shown) [Example 403], the IC50 in assay [2] was determined as 750 nM.

Regarding `C#CC(CC(=O)OCC)NCCOc1ccc(Cc2ccccc2)cc1` (stereo not shown) [Example 408], the inhibition at 100 µM in assay [2] was 76%.

For `C=CCN(CCCOc1ccc(Cc2ccccc2)cc1)CCC(=O)OCc1ccccc1` [Example 409], the IC50 in assay [2] came to 12000 nM.

As to `C=CCN(CCCCOc1ccc(Cc2ccccc2)cc1)CCC(=O)OCC` [Example 410, Ethyl [[4-[4-(Phenylmethyl)phenoxyl]-butyl](2-propenyl)amino]propanoate], in assay [2], the IC50 amounted to 33000 nM.

Regarding `CN(CCCOc1ccc(Cc2ccccc2)cc1)CCC(=O)OCc1ccccc1` [Example 411], the IC50 in assay [2] is 2400 nM.

As for `CCOC(=O)CCN(C)CCCOc1ccc(Cc2ccccc2)cc1` [Example 412], the inhibition in vivo at 10 mg/kg in assay [1] (setting [3]) was found to be 72%.

With `CCOC(=O)CCN(CCCOc1ccc(Cc2ccccc2)cc1)Cc1cccnc1` [Example 414], the IC50 in assay [2] was 11000 nM.

Consider `CCOC(=O)CCN(C)CCCCOc1ccc(Cc2ccccc2)cc1` [Example 415], for which, in assay [2], the IC50 was determined as 5000 nM.

Turning to `CC(CN(C)CCCOc1ccc(Cc2ccccc2)cc1)C(=O)OCc1ccccc1` (stereo not shown) [Example 417], the IC50 in assay [2] was determined as 4300 nM.

For the compound `CN(CCCOc1ccc(Cc2ccccc2)cc1)CC(C)(C)C(=O)OCc1ccccc1` [Example 418], the IC50 in assay [2] came out at 12000 nM.

As for `CNC(=O)C1CCN(CCOc2ccc(Cc3ccccc3)cc2)CC1` [Example 420], the inhibition in vivo at 10 mg/kg in assay [1] (setting [5]) is 93%.

For `NC(=O)CCNC(=O)C1CCN(CCOc2ccc(Cc3ccccc3)cc2)CC1` [Example 421], the IC50 in assay [2] came to 410 nM.

On to `NC(=O)CCNCCCOc1ccc(Cc2ccccc2)cc1` [Example 423], for which, in assay [2], the IC50 was 330 nM.

On to `NC(=O)CC1CCN(CCOc2ccc(Cc3ccccc3)cc2)C1` (stereo not shown) [Example 426], for which the inhibition in vivo at 10 mg/kg in assay [1] (setting [3]) worked out at 40%.

As to `O=C(O)C1CCN(CCOc2ccc(Cc3cccc(F)c3)cc2)CC1` [Example 436], the IC50 in assay [2] came out at 720 nM.

As for `O=C(O)C1CCN(CCOc2ccc(Cc3ccc(F)cc3)cc2)CC1` [Example 438], the IC50 in assay [2] worked out at 3200 nM.

As to `O=C(O)C1CCN(CCOc2ccc(Cc3ccsc3)cc2)CC1` [Example 439], in assay [2], the IC50 is 18000 nM.

`COC(=O)C1CC2CC1CN2CCOc1ccc(Cc2ccccc2)cc1` (stereo not shown) [Example 440]: the IC50 in assay [2] turned out to be 30 nM.

With `CC1CC(C#N)CCN1CCOc1ccc(Cc2ccccc2)cc1` (stereo not shown) [Example 444], the IC50 in assay [2] amounted to 300 nM.

For `CC1CC(C(N)=NO)CCN1CCOc1ccc(Cc2ccccc2)cc1` (stereo not shown) [Example 445], in assay [2], the IC50 was 330 nM.

Consider `N=C(N)C1CCN(CCOc2ccc(Cc3ccccc3)cc2)CC1` [Example 449], for which, in assay [2], the IC50 is 140 nM.

On to `c1ccc(Cc2ccc(OCCN3CCC(c4nnn[nH]4)CC3)cc2)cc1` [Example 450], for which the inhibition in vivo at 10 mg/kg in assay [1] (setting [4]) was determined as 91%.

With `NC(=S)N1CCN(CCOc2ccc(Cc3ccccc3)cc2)CC1` [Example 458], the IC50 in assay [2] stood at 560 nM.

Take `CS(=O)(=O)N1CCN(CCOc2ccc(Cc3ccccc3)cc2)CC1` [Example 460]: the IC50 in assay [2] was 84000 nM.

For the compound `COC(=O)C1CC2CC1CN(CCOc1ccc(Cc3ccccc3)cc1)C2` (stereo not shown) [Example 504], the IC50 in assay [2] was determined as 29 nM.
